Results reported in PubChem BioAssay (NCI).
Where “and” joins values, the source holds several entries; their conditions need not be identical. Equal entries are not always repeated.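 Compound exposure: 48 hours, 5 concentrations, 96-well plates. At the GI50, growth is halved. TGI is the concentration that stops growth completely.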

Columns and labels:
Experiment in all cases: DTP human tumour cell line panel, 48 h; in the data active means GI50 below about 0.43 µM; inactive means the rest
[1] = test system: A549 NSCLC
[2] = test system: ACHN renal
[3] = test system: DLD-1 colon
[4] = test system: DMS 114 small cell lung
[5] = test system: DMS 273 small cell lung
[6] = test system: HCT-116 colon
[7] = test system: HCT-15 colon
[8] = test system: HOP-18 NSCLC
[9] = test system: HT29 colon
[10] = test system: IGROV1 ovarian
[11] = test system: KM12 colon
[12] = test system: LOX IMVI melanoma
[13] = test system: LXFL 529 NSCLC
[14] = test system: M19-MEL melanoma
[15] = test system: MALME-3M melanoma
[16] = test system: MOLT-4 leukemia
[17] = test system: NCI-H226 lung
[18] = test system: NCI-H23 lung
[19] = test system: NCI-H460 lung
[20] = test system: NCI-H522 lung
[21] = test system: OVCAR-3 ovarian
[22] = test system: OVCAR-4 ovarian
[23] = test system: OVCAR-8 ovarian
[24] = test system: RXF 393 renal
[25] = test system: SF-268 CNS
[26] = test system: SF-295 CNS
[27] = test system: SF-539 CNS
[28] = test system: SK-MEL-2 melanoma
[29] = test system: SK-MEL-28 melanoma
[30] = test system: SK-MEL-5 melanoma
[31] = test system: SK-OV-3 ovarian
[32] = test system: SN12C renal
[33] = test system: SNB-19 CNS
[34] = test system: SNB-75 CNS
[35] = test system: SNB-78 CNS
[36] = test system: TK-10 renal
[37] = test system: UACC-257 melanoma
[38] = test system: UACC-62 melanoma
[39] = test system: UO-31 renal
[40] = test system: 786-0 renal
[41] = test system: A498 renal
[42] = test system: CAKI-1 renal
[43] = test system: CCRF-CEM leukemia
[44] = test system: COLO 205 colon
[45] = test system: EKVX NSCLC
[46] = test system: HCC-2998 colon
[47] = test system: HL-60(TB) leukemia
[48] = test system: HOP-62 NSCLC
[49] = test system: HOP-92 NSCLC
[50] = test system: K-562 leukemia
[51] = test system: KM20L2 colon
[52] = test system: M14 melanoma
[53] = test system: OVCAR-5 ovarian
[54] = test system: RPMI-8226 leukemia
[55] = test system: SW-620 colon
[56] = test system: U251 CNS
[57] = test system: XF 498 CNS

CC(=O)Oc1cc(OC(C)=O)c2c(=O)c3ccccc3n(C)c2c1
59.8 µM: TGI [31]
84.3 µM: TGI [35]
40.5 µM: TGI [17]
53.8 µM: TGI [39]
67.5 µM: TGI [19]
42.2 µM: TGI [27]
74.7 µM: TGI [6]
96.5 µM: TGI [4]
75.2 µM: TGI [24]
76.3 µM: TGI [34]
97.1 µM: TGI [28]
48.8 µM: TGI [15]
64.5 µM: TGI [9]
> 100 µM: TGI [1] | TGI [5] | TGI [7] | TGI [11] | TGI [13] | TGI [16] | TGI [21] | TGI [22] | TGI [33] | TGI [36] | TGI [38]
64.4 µM: TGI [23]
76.5 µM: TGI [25]
65.1 µM: TGI [2]
59.9 µM: TGI [29]
52.2 µM: TGI [14]
44.2 µM: TGI [26]
68.4 µM: TGI [10]
29.7 µM: TGI [30]
57.1 µM: TGI [8]
91.3 µM: TGI [3]
28.1 µM: TGI [12]
77.6 µM: TGI [18]
84.1 µM: TGI [37]
52.8 µM: TGI [20]
88.2 µM: TGI [32]

CCOC(=O)/N=c1\ss/c(=N\C(=S)N(C)C)n1-c1ccccc1
7.13 µM and 44.2 µM: TGI [24]
> 100 µM: TGI [40] | TGI [41] | TGI [1] | TGI [2] | TGI [42] | TGI [43] | TGI [44] | TGI [3] | TGI [5] | TGI [45] | TGI [46] | TGI [6] | TGI [7] | TGI [47] | TGI [48] | TGI [9] | TGI [10] | TGI [50] | TGI [11] | TGI [51] | TGI [12] | TGI [13] | TGI [52] | TGI [15] | TGI [16] | TGI [17] | TGI [18] | TGI [19] | TGI [53] | TGI [23] | TGI [54] | TGI [25] | TGI [26] | TGI [27] | TGI [28] | TGI [29] | TGI [30] | TGI [31] | TGI [32] | TGI [33] | TGI [35] | TGI [55] | TGI [36] | TGI [37] | TGI [38] | TGI [39] | TGI [57]
28.3 µM: TGI [34]
inactive: GI50 [41] 35 µM | GI50 [1] > 100 µM | GI50 [44] > 100 µM | GI50 [3] > 100 µM | GI50 [4] > 100 µM | GI50 [5] 77.1 µM | GI50 [46] > 100 µM | GI50 [6] > 100 µM | GI50 [7] > 100 µM | GI50 [47] > 100 µM | GI50 [10] > 100 µM | GI50 [11] > 100 µM | GI50 [51] > 100 µM | GI50 [52] > 100 µM | GI50 [14] > 100 µM | GI50 [15] > 100 µM | GI50 [16] > 100 µM | GI50 [17] > 100 µM | GI50 [19] 35.2 µM | GI50 [21] 23.2 µM | GI50 [22] > 100 µM | GI50 [23] > 100 µM | GI50 [54] > 100 µM | GI50 [24] 15.3 µM | GI50 [25] 44.7 µM | GI50 [29] 28.7 µM | GI50 [30] 18.8 µM | GI50 [31] > 100 µM | GI50 [32] > 100 µM | GI50 [34] 4.69 µM | GI50 [55] > 100 µM | GI50 [37] > 100 µM | GI50 [39] > 100 µM
71.3 µM: TGI [56]
94.2 µM: TGI [49]
active: GI50 [20] 0.401 µM
